Results taken from patent US8420574B2, “Plant growth enhancement with combinations of PESA and herbicides” (Valent BioSciences Corporation, priority 2009, dated 2013).

Experiments:
rice cv. Cheniere [1] = experiment: Pouch assay with PESA salt seed treatment; root length; type: in vivo; settings: 0 g PESA salt/100 lbs of seed, untreated 9.8
Method: Procedure for Treating Samples of Seed in the Laboratory
Seed was sieved with a screen of mesh size appropriate to remove broken seeds and small trash. Cracked or otherwise damaged seeds were removed. The seed was well mixed, and 50 g samples were weighed into small plastic trays. Seed treatment slurries were made by adding measured amounts of PESA or its salts and other AIs to sufficient water to bring them up to a standard volume, typically 2 ml. A fungicide (Maxim XL; Syngenta Agricultural Products, Greensboro, N.C.), a polymeric binder (CF-Clear; Becker-Underwood, Ames, Iowa), and a colorant (Color Coat Red; Becker-Underwood, Ames, Iowa) were also included in the slurry at label rates. A small aliquot of this slurry was applied to the seed using the Hege 11 coater (Wintersteiger, Salt Lake City, Utah) with a six-inch bowl at a slurry rate of 30 ounces per 100 lbs of seed. The slurry was deposited drop-wise on the spinning disk atomizer using a syringe.
After treatment, each seed sample was placed in plastic trays and dried at a room temperature for 20 to 60 minutes. The samples were then placed in small plastic bags. Samples were spot-checked using a water activity meter to make sure the water activity is below 0.7.
(§1) Seeds were placed in germination pouches consisting of germination paper hydrated with sterile water that was an insert in a gas-permeable 16×14 cm plastic pouch (CYG Pouch; Mega International, St. Paul, Minn.). In these examples, in pouch solution evaluation, PESA sodium salt or other active ingredients were added to the sterile water in the pouch. The pouches were arranged in a completely randomized block design in growth racks and placed in 19-liter polycarbonate food storage containers (Rubbermaid Commercial Products, Winchester, Va.). The sealed containers were held in an upright growth cabinet maintained at 25 C with a 12 hour light: 12 hour dark photoperiod. After 6 days, the containers were removed from the growth cabinet, and the lengths of the roots and shoot were measured.
Rice cv. Chemere was treated with PESA sodium salt prior to growing in the pouch. The treated seeds were then grown in the pouch in a dose-dependent series of trifluralin concentrations (Table 2). […] This confirms that seed treatment with the PESA salt protects or safens rice from the negative effects of trifluralin herbicide on root growth.

rice cv. Cheniere [2] = experiment: Pouch assay, PESA salt and herbicide added to the pouch solution; root and shoot length; type: in vivo; settings: for Shoot Length / Root Length: 0 ppm PESA salt; for Shoot Length: untreated 3.2; for Root Length: untreated 9.2
Method: Alternatively, PESA salt and herbicides may be added separately to the sterile water in the growth pouch.
as §1

CCCN(CCC)c1c([N+](=O)[O-])cc(C(F)(F)F)cc1[N+](=O)[O-] [Trifluralin, trifluralin, reference compound]
Root Length (rice cv. Cheniere [1]; 50 ppm trifluralin): 0.9 cm
Root Length (rice cv. Cheniere [1]; 100 ppm trifluralin): 0.1 cm
Shoot Length (rice cv. Cheniere [2]; 1 ppm trifluralin): 3.7 cm
Root Length (rice cv. Cheniere [2]; 1 ppm trifluralin): 9.8 cm
Shoot Length (rice cv. Cheniere [2]; 10 ppm trifluralin): 3.3 cm
Root Length (rice cv. Cheniere [2]; 10 ppm trifluralin): 8.3 cm
root length reduced by (rice cv. Cheniere [2]; 100 ppm trifluralin): 90%
Shoot Length (rice cv. Cheniere [2]; 100 ppm trifluralin): 2.2 cm
Root Length (rice cv. Cheniere [2]; 100 ppm trifluralin): 0.9 cm
